Like-named read-outs stand apart in the source and are kept apart here.
How the values were obtained:
[1] = system: H2A.X; assay: Western blot, H2A.X induction in NCI-H460 cells; type: cell-based, Human; conditions: 24 h; SAHA 5 μM, SN38 0.05 μM, 3d 0.125–0.2–0.5 μM
Method: (§1) The supernatant, containing the total proteins extracts, were transferred in new vials. The protein concentration was measured by Bradford Protein Assay. Equal amounts of proteins for each sample were then resolved by SDS-PAGE and loaded on 10–12% polyacrilamide gels. The proteins were then transferred on nitrocellulose membranes. Molecular weights were estimated based upon the relative migration with molecular weight protein markers.
(§2) The non-specific binding was blocked by incubation of membranes in TBS-tween (25 mM Tris, 150 mM NaCl, 0.1% Tween 20) with 5% nonfat dry milk (BIORAD, Milan) for 60 minutes. Subsequently, the membrane was incubated overnight with primary antibodies: anti-Histone H4 (Millipore, 1:500), anti-acetyl-H4 (Santa Cruz, 1:1000) anti-p21 (Santa Cruz, 1:1000), anti-acetyl-tubulin (abcam, 1:1000), anti-α-tubulin (Sigma, 1:5000), anti β-actin (Sigma, 1:5000) and anti-Topoisomerase 1 (Santa Cruz, 1:500). After three washes with TBST blots were incubated with HRP-coniugated secondary anti-mouse and anti-rabbit (Santa Cruz, 1:5000) 1 hour at room temperature. After three washes with TBST the blots were developed with ECL substrate (GE Healthcare) and chemiluminescence detected by ChemiDoc Imaging System (Biorad). The optical density of the protein bands detected by western blotting was normalized on α -tubulin levels and analyzed by ChemiDoc software (Biorad).
(§3) Cells were lysed in 0.5% NP-40 and 40 μg of total proteins were loaded on NuPAGE 4–12% (Invitrogen), transferred to a nitrocellulose paper and probed with specific antibodies.

[2] = system: OCI-LY3; assay: Cytotoxicity assay (MTT, 72 h) OCI-LY3; type: cell-based, Human; conditions: for IC50: Homo sapiens, OCI-Ly3, 72 h, MTT assay, read-out: IC50 ± SD OCI-LY3
Method: (§4) Human tumor cells were seeded in 96-well cell culture plastic plates, allowed to attach, and exposed to scalar concentrations of the test compounds.

[3] = system: p16; assay: Western blot, p16 in NCI-H460 cells; type: cell-based, Human; conditions: 24 h; SAHA 5 μM, SN38 0.05 μM, 3d 0.125–0.2–0.5 μM
Method: as §1, §2, §3

[4] = system: RPMI-8226; assay: Cytotoxicity assay (MTT, 72 h) RPMI-8226; type: cell-based; conditions: Homo sapiens, read-out: IC50 ± SD RPMI-8226
Method: as §4

[5] = system: CycD1; assay: Western blot, CycD1 in NCI-H460 cells; type: cell-based, Human; conditions: 24 h; SAHA 5 μM, SN38 0.05 μM, 3d 0.125–0.2–0.5 μM
Method: as §1, §2, §3

[6] = system: primary malignant pleural mesothelioma (MPM) cell lines; assay: Primary malignant pleural mesothelioma (MPM) cell lines (summary); type: cell-based; conditions: Homo sapiens, span over the cell line panel, 72 h, read-out: IC50 across primary mesothelioma cell lines (Table 7)
[7] = system: p21; assay: Western blot, p21 in NCI-H460 cells; type: cell-based, Human; conditions: 24 h; SAHA 5 μM, SN38 0.05 μM, 3d 0.125–0.2–0.5 μM
Method: as §1
as §2, with “software (Biorad). […]” for “software (Biorad).”

[8] = system: NCI-H460 NSCLC cells; assay: FACS analysis of cell cycle and apoptosis; type: cell-based, Human; conditions: 72 h at own IC80 dose, PI staining; for Sub-G0/1 (%): apoptosis
[9] = system: L-428; assay: Cytotoxicity assay (MTT, 72 h) L-428; type: cell-based, Human; conditions: for IC50: Homo sapiens, L-428, 72 h, MTT assay, read-out: IC50 ± SD L-428
Method: as §4

[10] = system: p53; assay: Western blot, p53 in NCI-H460 cells; type: cell-based, Human; conditions: 24 h; SAHA 5 μM, SN38 0.05 μM, 3d 0.125–0.2–0.5 μM
Method: as §1, §2, §3

[11] = system: MM404; assay: Cytotoxicity assay, primary mesothelioma MM404; type: cell-based, Human; conditions: epithelioid, 72 h, SBR assay; read-out: IC50 ± SD MM404
[12] = system: MM432; assay: Cytotoxicity assay, primary mesothelioma MM432; type: cell-based, Human; conditions: sarcomatoid, 72 h, SBR assay, read-out: IC50 ± SD MM432
[13] = system: MM317; assay: Cytotoxicity assay, primary mesothelioma MM317; type: cell-based, Human; conditions: epithelioid, 72 h, SBR assay, read-out: IC50 ± SD MM317
[14] = system: MM487; assay: Cytotoxicity assay, primary mesothelioma MM487; type: cell-based, Human; conditions: biphasic, 72 h, SBR assay, read-out: IC50 ± SD MM487
[15] = system: MM491; assay: Cytotoxicity assay, primary mesothelioma MM491; type: cell-based, Human; conditions: biphasic, 72 h, SBR assay; read-out: IC50 ± SD MM491
[16] = system: MM472; assay: Cytotoxicity assay, primary mesothelioma MM472; type: cell-based, Human; conditions: sarcomatoid, 72 h, SBR assay; read-out: IC50 ± SD MM472
[17] = system: MM481; assay: Cytotoxicity assay, primary mesothelioma MM481; type: cell-based, Human; conditions: epithelioid, 72 h, SBR assay; read-out: IC50 ± SD MM481
[18] = system: MM288; assay: Cytotoxicity assay, primary mesothelioma MM288; type: cell-based, Human; conditions: epithelioid, 72 h, SBR assay, read-out: IC50 ± SD MM288
[19] = system: MM473; assay: Cytotoxicity assay, primary mesothelioma MM473; type: cell-based, Human; conditions: epithelioid, 72 h, SBR assay; read-out: IC50 ± SD MM473
[20] = system: A2780; assay: Cytotoxicity assay (SRB, 72 h) A2780; type: cell-based, Human; conditions: Homo sapiens, A2780, read-out: IC50 ± SD A2780
[21] = system: NCI-H460; assay: Cytotoxicity assay (SRB, 72 h) NCI-H460; type: cell-based, Human; conditions: Homo sapiens, NCI-H460; 72 h, SRB assay; read-out: IC50 ± SD NCI-H460
[22] = system: A2780-Dx; assay: Cytotoxicity assay (SRB, 72 h) A2780-Dx; type: cell-based, Human; conditions: for IC50: Homo sapiens, A2780/DX, 72 h, SRB assay, multidrug-resistant ovarian carcinoma, read-out: IC50 ± SD A2780-Dx
[23] = system: HepG2; assay: Cytotoxicity assay (SRB, 72 h) HepG2; type: cell-based, Human; conditions: Homo sapiens, HepG2, read-out: IC50 ± SD HepG2
[24] = system: hematologic cancer cell lines; assay: Screening on hematologic cancer cell lines (summary); type: cell-based; conditions: Homo sapiens, read-out: IC50 across hematologic cancer cell lines (Tables 5 and 6); span over the cell line panel, 72 h, MTT assay
[25] = system: U-2932; assay: Cytotoxicity assay (MTT, 72 h) U-2932; type: cell-based, Human; conditions: Homo sapiens, U2932, read-out: IC50 ± SD U-2932
[26] = system: KM-H2; assay: Cytotoxicity assay (MTT, 72 h) KM-H2; type: cell-based, Human
[27] = system: MAVER-2; assay: Cytotoxicity assay (MTT, 72 h) MAVER-2; type: cell-based, Human; conditions: Homo sapiens, read-out: IC50 ± SD MAVER-2
[28] = system: HT29; assay: Cytotoxicity assay (SRB, 72 h) HT29; type: cell-based, Human; conditions: Homo sapiens, HT-29, read-out: IC50 ± SD HT29
[29] = system: DG-75; assay: Cytotoxicity assay (MTT, 72 h) DG-75; type: cell-based, Human
[30] = system: NB4; assay: Cytotoxicity assay (MTT, 72 h) NB4; type: cell-based, Human; conditions: Homo sapiens, NB-4, read-out: IC50 ± SD NB4
[31] = system: HeLa; assay: Cytotoxicity assay (SRB, 72 h) HeLa; type: cell-based, Human; conditions: Homo sapiens, HeLa, read-out: IC50 ± SD HeLa
[32] = system: human epithelioid mesothelioma MM473-Luc; assay: In vivo antitumor activity, orthotopic MM473-Luc xenograft; conditions: i.v. 35 mg/kg, q4dx3, treatment from day 15
[33] = system: Capan 1; assay: Cytotoxicity assay (SRB, 72 h) Capan 1; type: cell-based, Human; conditions: Homo sapiens, CAPAN-1, read-out: IC50 ± SD Capan 1
[34] = system: MINO; assay: Cytotoxicity assay (MTT, 72 h) MINO; type: cell-based, Human
[35] = system: series of human tumor cell lines; assay: Antiproliferative activity, series of human tumor cell lines (summary); type: cell-based; conditions: span over the cell line panel, 72 h, SRB assay, read-out: IC50 across the human tumor cell lines of Table 3
[36] = system: JECO-1; assay: Cytotoxicity assay (MTT, 72 h) JECO-1; type: cell-based, Human
[37] = system: A431; assay: Cytotoxicity assay (SRB, 72 h) A431; type: cell-based, Human; conditions: Homo sapiens, A-431, read-out: IC50 ± SD A431
[38] = system: DU145; assay: Cytotoxicity assay (SRB, 72 h) DU145; type: cell-based, Human; conditions: Homo sapiens, DU-145, read-out: IC50 ± SD DU145
[39] = meaning not defined in the paper, given beside >10 μM

Compound: O=C(CCCCCCC(=O)Nc1ccccc1)NO [SAHA, suberoylanilide hydroxamic acid]
- H2A.X induction (DNA damage) [1]: completely ineffective in H2A.X induction
- IC50 [2]: 0.99 ± 0.3 µM
- P16 regulation [3]: down
- IC50 [4]: 1.98 ± 0.5 µM
- CycD1 regulation [5]: up-regulated
- IC50 [6]: 4 to 12 µM
- expression of p21 [7]: induction of p21
- G0/1 (%) [8]: 65.2%
- G2/M (%) [8]: 23.1%
- S (%) [8]: 11.7%
- Sub-G0/1 (%) [8]: 1.8%
- IC50 [9]: 2.3 ± 0.5 µM
- p53 activation [10]: less effective in p53 up-regulation

Compound: N.N.[Cl][Pt][Cl] [Cisplatin]
- IC50 [11]: 2.4 ± 0.5 µM
- IC50 [12]: 5 ± 0.8 µM
- IC50 [13]: 4.2 ± 0.6 µM
- IC50 [14]: 3 ± 0.5 µM
- IC50 [15]: 6.5 ± 0.9 µM
- IC50 [16]: 1.26 ± 0.1 µM
- IC50 [17]: 7 ± 1.5 µM
- IC50 [18]: 8.1 ± 0.3 µM
- IC50 [19]: 2.4 ± 0.2 µM

Compound: CC[C@@]1(O)C(=O)OCc2c1cc1n(c2=O)Cc2c-1nc1ccccc1c2C=NOCCCCCCNC(=O)CS [Compound 10, N-[camptothecin-7-yl-(methyleneaminooxy)-hexyl]-2-mercaptoacetamide]
- IC50 [20]: 0.21 ± 0.05 µM
- melting point: 120 °C
- IC50 [21]: 0.1 ± 0.01 µM
- RI (Resistance Index) ([22]; A2780-Dx versus A2780): 1.7
- IC50 [22]: 0.35 ± 0.1 µM

Compound: CCc1c2c(nc3ccc(OC(=O)N4CCC(N5CCCCC5)CC4)cc13)-c1cc3c(c(=O)n1C2)COC(=O)[C@]3(O)CC [Irinotecan]
- IC50 [20]: 3.8 ± 0.5 µM
- IC50 [23]: 4 ± 0.8 µM
- IC50 [2]: > 10 µM
- percentage in parentheses after IC50 >10, OCI-LY3 [2, 39]: 0%
- IC50 [24]: > 10 µM
- IC50 ([12]; Homo sapiens): 10 ± 2 µM
- IC50 ([13]; Homo sapiens): 7 ± 1 µM
- IC50 [6]: > 7 µM
- IC50 ([14]; Homo sapiens, MM487): 9.4 ± 0.7 µM
- IC50 [25]: 4.4 ± 0.8 µM
- IC50 [21]: 2.4 ± 0.1 µM
- IC50 ([26]; Homo sapiens, KM-H2, 72 h, MTT assay, read-out: IC50 ± SD KM-H2): > 10 µM
- percentage in parentheses after IC50 >10, KM-H2 [26, 39]: 12%
- IC50 [27]: 0.74 ± 0.1 µM
- IC50 [28]: 4.8 ± 0.4 µM
- IC50 ([29]; Homo sapiens, DG-75, 72 h, MTT assay, read-out: IC50 ± SD DG-75): > 10 µM
- percentage in parentheses after IC50 >10, DG-75 [29, 39]: 0%
- IC50 [30]: 1 ± 0.3 µM
- IC50 [31]: 5.8 ± 0.6 µM
- IC50 [22]: 20.1 ± 2.9 µM
- antitumor activity (BLI signal, average radiance) [32]: only a marginal antitumor effect
- G0/1 (%) [8]: 7.9%
- G2/M (%) [8]: 3.2%
- S (%) [8]: 89.0%
- Sub-G0/1 (%) [8]: 2.7%
- IC50 [33]: 1.5 ± 0.1 µM
- IC50 [9]: > 10 µM
- percentage in parentheses after IC50 >10, L-428 [9, 39]: 0%
- IC50 ([34]; Homo sapiens, MINO, 72 h, MTT assay, read-out: IC50 ± SD MINO): > 10 µM
- percentage in parentheses after IC50 >10, MINO [34, 39]: 36%
- IC50 [35]: > 1.5 µM
- IC50 ([36]; Homo sapiens, 72 h, MTT assay, read-out: IC50 ± SD JECO-1): > 10 µM
- percentage in parentheses after IC50 >10, JECO-1 [36, 39]: 48%
- IC50 [37]: 4.1 ± 0.1 µM
- IC50 [38]: 2.8 ± 0.07 µM
- IC50 ([18]; Homo sapiens): 14.9 ± 2 µM

Reference: article PMC6177136, “Hybrid topoisomerase I and HDAC inhibitors as dual action anticancer agents” (PLoS ONE, 2018)
